Reference: PMC5945843, “Direct neurotransmitter activation of voltage-gated potassium channels” (Nature Communications, 2018)
Where “and” joins values, the source holds several entries; their conditions need not be identical. Identical values can stand only once. Entries after “also recorded” stand apart in the source; their conditions may differ. Like-named read-outs stand apart in the source and are kept apart here.

Experiments:
[1] = biological target: heteromeric KCNQ2/3 channels (Homo sapiens, UniProt O43525+O43526); experiment: TEVC in Xenopus oocytes; type: cell-based; conditions: for EC50: at −60 mV; for effect of compound alone on KCNQ2/3 current: 100 µM
Chain of heteromeric KCNQ2/3 channels (O43526 whole entry): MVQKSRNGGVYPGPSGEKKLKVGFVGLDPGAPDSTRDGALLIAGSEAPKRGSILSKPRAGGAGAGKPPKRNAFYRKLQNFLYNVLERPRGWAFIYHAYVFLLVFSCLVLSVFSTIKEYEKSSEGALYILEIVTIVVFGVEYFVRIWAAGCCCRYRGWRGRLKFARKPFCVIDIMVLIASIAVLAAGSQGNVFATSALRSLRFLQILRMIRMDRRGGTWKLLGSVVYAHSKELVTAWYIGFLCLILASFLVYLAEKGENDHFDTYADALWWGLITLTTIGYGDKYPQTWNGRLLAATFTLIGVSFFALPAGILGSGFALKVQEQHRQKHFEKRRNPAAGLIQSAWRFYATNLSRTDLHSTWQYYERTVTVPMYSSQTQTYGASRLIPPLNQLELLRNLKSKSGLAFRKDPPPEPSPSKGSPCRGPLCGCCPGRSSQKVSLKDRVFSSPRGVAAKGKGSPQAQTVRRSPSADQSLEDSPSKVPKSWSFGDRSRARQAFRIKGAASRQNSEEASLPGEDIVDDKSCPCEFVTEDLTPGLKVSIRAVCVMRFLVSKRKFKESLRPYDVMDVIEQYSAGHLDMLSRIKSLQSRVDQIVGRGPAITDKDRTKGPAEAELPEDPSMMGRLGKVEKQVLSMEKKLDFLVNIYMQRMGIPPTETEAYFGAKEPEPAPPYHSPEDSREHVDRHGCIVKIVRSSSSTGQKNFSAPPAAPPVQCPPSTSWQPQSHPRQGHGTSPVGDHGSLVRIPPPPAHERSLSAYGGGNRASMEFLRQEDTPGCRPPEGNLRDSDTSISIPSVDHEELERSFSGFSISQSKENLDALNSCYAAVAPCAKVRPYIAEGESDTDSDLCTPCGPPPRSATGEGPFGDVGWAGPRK
Chain of heteromeric KCNQ2/3 channels (O43525 whole entry): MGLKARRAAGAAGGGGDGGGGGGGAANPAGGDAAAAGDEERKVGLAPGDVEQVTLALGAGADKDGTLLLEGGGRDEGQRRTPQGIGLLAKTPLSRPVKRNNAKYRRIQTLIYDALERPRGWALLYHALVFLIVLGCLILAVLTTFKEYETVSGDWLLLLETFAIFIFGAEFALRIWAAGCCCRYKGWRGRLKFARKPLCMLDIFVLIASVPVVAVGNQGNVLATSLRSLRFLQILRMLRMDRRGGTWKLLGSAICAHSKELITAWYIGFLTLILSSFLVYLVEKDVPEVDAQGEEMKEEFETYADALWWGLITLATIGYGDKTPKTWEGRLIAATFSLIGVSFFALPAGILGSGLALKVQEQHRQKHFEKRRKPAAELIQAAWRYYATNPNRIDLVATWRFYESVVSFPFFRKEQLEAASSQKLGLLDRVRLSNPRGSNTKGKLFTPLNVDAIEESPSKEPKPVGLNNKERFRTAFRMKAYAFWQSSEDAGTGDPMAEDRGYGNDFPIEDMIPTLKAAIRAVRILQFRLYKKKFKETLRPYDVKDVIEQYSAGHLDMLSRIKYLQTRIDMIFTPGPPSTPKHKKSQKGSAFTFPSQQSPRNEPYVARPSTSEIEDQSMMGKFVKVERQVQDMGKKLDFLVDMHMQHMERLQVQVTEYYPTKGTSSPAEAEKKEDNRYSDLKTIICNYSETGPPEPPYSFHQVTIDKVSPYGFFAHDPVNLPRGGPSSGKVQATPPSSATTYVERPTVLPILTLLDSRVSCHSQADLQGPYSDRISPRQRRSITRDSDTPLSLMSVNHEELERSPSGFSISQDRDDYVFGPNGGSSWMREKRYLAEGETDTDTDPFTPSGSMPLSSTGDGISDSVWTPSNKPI
Source text: cRNA transcripts encoding human KCNQ1, KCNQ2, KCNQ3, KCNQ4, KCNQ5, KCNA1, or KCNE1 were generated by in vitro transcription using the T7 polymerase mMessage mMachine kit (Thermo Fisher Scientific), after vector linearization, from complementary DNA (cDNA) sub-cloned into plasmids incorporating Xenopus laevis β-globin 5′ and 3′ untranslated regions flanking the coding region to enhance translation and cRNA stability. cRNA was quantified by spectrophotometry. […] Defolliculated stage V and VI Xenopus laevis oocytes (Ecocyte Bioscience, Austin, TX) were injected with Kv channel α subunit cRNAs (5–10 ng).
Oocytes were placed in a small-volume oocyte bath (Warner) and viewed with a dissection microscope. Chemicals were sourced from Sigma. Bath solution was (in mM): 96 NaCl, 4 KCl, 1 MgCl2, 1 CaCl2, 10 HEPES (pH 7.6). […] Valeric acid was stored as a 5 mM stock in Ringer’s solution at 4 °C and diluted to working concentrations each experimental day. β-hydroxybutyric acid was stored at 4 °C as a 480 mM stock in 100% ethanol and diluted to working concentrations each experimental day. All compounds were introduced to the recording bath via gravity perfusion at a constant flow of 1 ml per min for 3 min prior to recording. Pipettes were of 1–2 MΩ resistance when filled with 3 M KCl. Currents were recorded in response to pulses between −80 mV and +40 mV at 20 mV intervals, or a single pulse to +40 mV, from a holding potential of −80 mV, to yield current-voltage relationships, current magnitude, and for quantifying activation rate. Deactivation was recorded at −80 mV after a single activating pulse to +40 mV, from a holding potential of −80 mV. […] TEVC data analysis was performed with Clampfit (Molecular Devices) and Graphpad Prism software (GraphPad, San Diego, CA, USA); values are stated as mean ± SEM. Normalized tail currents were plotted versus prepulse voltage and fitted with a single Boltzmann function:1 g=(A1-A2)/1+expV1/2-V∕VS+A2, where g is the normalized tail conductance, A1 is the initial value at −∞, A2 is the final value at +∞, V1/2 is the half-maximal voltage of activation, and VS the slope factor. Activation and deactivation kinetics were fitted with single exponential functions.

[2] = test system: canonical GABAA receptors; design: method as in PMID 17717222; conditions: up to 5 mM BHB; cited from earlier work
[3] = test system: KCNQ3*; design: method as in PMID 26333338; conditions: read-out: EC50 (sensitivity previously reported); cited from earlier work
[4] = test system: native M-current in PC12 cells; experiment: Whole-cell patch clamp of NGF-differentiated PC12 cells; type: cell-based, rat
Procedure: CHO cells (ATCC) were seeded on poly-L-lysine-treated glass coverslips in 24-well plates and transfected the next day using 0.5 µg each of mouse KCNQ2 and KCNQ3 cDNA in a CMV vector per well in normal media (DMEM with 10% FBS and 1% penicillin/streptomycin). The transfection reagent used was TransIT-LT1 (Mirus Bio LLC, Madison, WI, USA) and cells were patched 48–72 h post transfection. […] Media was replenished every 3 days and cultures were split once a week. […] Cell culture plastic ware and reagents were purchased from VWR and Fisher Scientific unless otherwise stated.
For both CHO cells and PC12 cells, currents were recorded in whole-cell mode at room temperature (22–25 °C) with 3–6 MΩ borosilicate glass electrodes backfilled with solution containing (in mM): 90 K acetate, 20 KCl, 40 HEPES, 3 MgCl2, 1 CaCl2, 3 EGTA-KOH, 2 MgATP; pH 7.2.
The pClamp8 (Molecular Devices) software package was used for data acquisition and Clampfit was used for analysis, along with Graphpad Prism 7.0 (Graphpad).

[5] = test system: native M-current in mouse DRG neurons; experiment: Perforated patch-clamp of dorsal root ganglion neurons; type: cell-based; conditions: XE991 10 µM in combination with GABA 100 µM
Procedure: Adult male mice were purchased from Jackson Labs and then housed and used according to a protocol approved by the Institutional Animal Care and Use Committee of University of California, Irvine, and consistent with recommendations in the NIH Guide for the Care and Use of Laboratory Animals (8th edition, 2011). […]. DRG neurons were then cultured on poly-L-lysine and laminin-coated plastic coverslips in RPMI 1640 with 10% horse serum and 1% penicillin/streptomycin at 37 °C for 1–4 days before electrophysiological recordings were performed using perforated patch clamp. Amphotericin B (VWR, Radnor, PA) was dissolved in DMSO at 5 mg/ml (stock solution), then diluted to 150–200 µg/ml in intracellular solution and sonicated with a probe sonicator on ice for 5 s, kept at room temperature in the dark, and replaced every hour with a fresh solution from the stock. The working amphotericin solution was backfilled into borosilicate glass electrodes (3–5 MΩ) previously tip-filled to ~0.5 mm with intracellular solution lacking amphotericin B, immediately prior to sealing onto individual neurons. After whole-cell configuration was achieved and capacitance stabilized, whole-cell recordings were performed essentially as described in the prior paragraph, with the following differences: neurons were held at −20 mV to inactivate other channels before the test pulses; offline leak subtraction was performed.

[6] = test system: GABA receptors; design: method as in PMID 25779225; conditions: cited from earlier work
[7] = 100 µM compound with 10 µM GABA
[8] = 10 µM XE991 + 100 µM picrotoxin + 10 µM CGP55845, recorded after the GABA condition
[9] = Ctrl with 2 µg/ml Pertussis toxin, no GABA

CC(=O)OCC[N+](C)(C)C [ACh, acetylcholine]
Slope [1]: 4.8 ± 2.7 mV and 3.8 ± 6.5 mV and 5.1 ± 2.5 mV and 5.6 ± 2.7 mV and 5.1 ± 1.9 mV
concentration giving maximal effect [1]: ≥ 1 µM
effect on KCNQ2/3 activity via endogenous mAChRs [1]: inhibited

CC(O)CC(=O)O (stereo not drawn) [BHB, β-hydroxybutyric acid]
Slope ([1]; 1 µM β-Hydrox, Ctrl 6.2 ± 0.8): 5.9 ± 0.4 mV
Normalized tail current V0.5 ([1]; 1 µM β-Hydrox, Ctrl -36.1 ± 1.8): -46.1 ± 0.6 mV
Non-normalized tail current V0.5 ([1]; 1 µM β-Hydrox, Ctrl -36.4 ± 8.7): -43.9 ± 8.2 mV
Slope ([1]; 10 µM β-Hydrox, Ctrl 6.2 ± 0.8): 5.9 ± 0.4 mV
Normalized tail current V0.5 ([1]; 10 µM β-Hydrox, Ctrl -36.1 ± 1.8): -48.1 ± 0.4 mV
Non-normalized tail current V0.5 ([1]; 10 µM β-Hydrox, Ctrl -36.4 ± 8.7): -45.5 ± 7.9 mV
Slope ([1]; 100 µM β-Hydrox, Ctrl 6.2 ± 0.8): 5.9 ± 0.3 mV
Normalized tail current V0.5 ([1]; 100 µM β-Hydrox, Ctrl -36.1 ± 1.8): -50.2 ± 0.3 mV
Non-normalized tail current V0.5 ([1]; 100 µM β-Hydrox, Ctrl -36.4 ± 8.7): -46.0 ± 7.9 mV
Slope ([1]; 1 mM β-Hydrox, Ctrl 6.2 ± 0.8): 5.7 ± 0.6 mV
Normalized tail current V0.5 ([1]; 1 mM β-Hydrox, Ctrl -36.1 ± 1.8): -46.5 ± 0.9 mV
Non-normalized tail current V0.5 ([1]; 1 mM β-Hydrox, Ctrl -36.4 ± 8.7): -46.0 ± 7.4 mV
Slope ([1]; 4 mM β-Hydrox, Ctrl 6.2 ± 0.8): 4.9 ± 0.6 mV
Normalized tail current V0.5 ([1]; 4 mM β-Hydrox, Ctrl -36.1 ± 1.8): -44.9 ± 0.8 mV
Non-normalized tail current V0.5 ([1]; 4 mM β-Hydrox, Ctrl -36.4 ± 8.7): -44.7 ± 7.1 mV
EC50 [1]: 0.95 ± 0.13 µM
BHB sensitivity [2]: BHB-insensitive

C[C@H](NC[C@H](O)CP(=O)(O)Cc1ccccc1)c1ccc(Cl)c(Cl)c1 [CGP55845, reference compound]
effect of compound alone on KCNQ2/3 current [1]: neither altered KCNQ2/3 currents alone
Slope ([1]; 100 µM CGP, Ctrl 6.7 ± 0.3): 6.6 ± 0.7 mV
Non-normalized tail current V0.5 ([1]; 100 µM CGP, Ctrl -44.9 ± 3.5): -45.6 ± 3.7 mV
Normalized tail current V0.5 ([1]; 100 µM CGP, Ctrl -45.1 ± 0.3): -47.1 ± 1.1 mV
effect on GABA activation of KCNQ2/3 [1, 7]: nor did it diminish GABA activation of KCNQ2/3

NCC(O)CC(=O)O (stereo not drawn) [GABOB, γ-amino-β-hydroxybutyric acid]
agonist character compared to BHB and GABA [1]: lower efficacy partial agonist
effect on retigabine activation of KCNQ2/3 [1]: reduces the efficacy
Slope ([1]; 0.01 µM GABOB, Ctrl 10.3 ± 1.3): 11.1 ± 1.8 mV
Non-normalized tail current V0.5 ([1]; 0.01 µM GABOB, Ctrl -43.8 ± 3.9): -42.7 ± 5.0 mV
Normalized tail current V0.5 ([1]; 0.01 µM GABOB, Ctrl -44.9 ± 1.5): -42.8 ± 2.0 mV
Slope ([1]; 0.1 µM GABOB, Ctrl 10.3 ± 1.3): 10.6 ± 1.6 mV
Non-normalized tail current V0.5 ([1]; 0.1 µM GABOB, Ctrl -43.8 ± 3.9): -45.8 ± 5.1 mV
Normalized tail current V0.5 ([1]; 0.1 µM GABOB, Ctrl -44.9 ± 1.5): -46.6 ± 1.9 mV
Slope ([1]; 1 µM GABOB, Ctrl 10.3 ± 1.3): 10.1 ± 1.2 mV
Non-normalized tail current V0.5 ([1]; 1 µM GABOB, Ctrl -43.8 ± 3.9): -46.4 ± 4.7 mV
Normalized tail current V0.5 ([1]; 1 µM GABOB, Ctrl -44.9 ± 1.5): -47.1 ± 1.4 mV
Slope ([1]; 10 µM GABOB, Ctrl 10.3 ± 1.3): 9.6 ± 0.9 mV
Non-normalized tail current V0.5 ([1]; 10 µM GABOB, Ctrl -43.8 ± 3.9): -46.8 ± 4.5 mV
Normalized tail current V0.5 ([1]; 10 µM GABOB, Ctrl -44.9 ± 1.5): -48.1 ± 1.2 mV
Slope ([1]; 100 µM GABOB, Ctrl 10.3 ± 1.3): 9.3 ± 0.8 mV
Non-normalized tail current V0.5 ([1]; 100 µM GABOB, Ctrl -43.8 ± 3.9): -46.3 ± 4.2 mV
Normalized tail current V0.5 ([1]; 100 µM GABOB, Ctrl -44.9 ± 1.5): -47.8 ± 0.9 mV
effect on GABA activation of KCNQ2/3 [1, 7]: diminished the KCNQ2/3-activating efficacy of GABA
Slope ([1]; 1 mM GABOB, Ctrl 10.3 ± 1.3): 9.2 ± 0.7 mV
Non-normalized tail current V0.5 ([1]; 1 mM GABOB, Ctrl -43.8 ± 3.9): -46.7 ± 4.0 mV
Normalized tail current V0.5 ([1]; 1 mM GABOB, Ctrl -44.9 ± 1.5): -48.0 ± 0.9 mV
lowering of retigabine efficacy ([1]; at -60 mV): almost fourfold
EC50 [1]: 0.1 ± 0.01 µM

Cc1cc(C)c(NC(=O)C2CC3CCC2C3)c(C)c1 (stereo not drawn) [ML-213]
EC50 [3]: 3.6 µM

O=C1c2ccccc2C(Cc2ccncc2)(Cc2ccncc2)c2ccccc21 [XE991]
effect on GABA-augmented KCNQ2/3 current ([1]; XE991 50 µM): readily inhibited
Normalized tail current V0.5 [4, 8]: -4.9 ± 4.3 mV
Slope [4, 8]: 18.4 ± 2.2 mV
effect on GABA-dependent shift of tail currents ([4]; XE991 10 µM): removed the GABA-dependent negative-shift
inhibition of deactivating current at −60 mV [5]: > 50%

NCC(CC(=O)O)c1ccc(Cl)cc1 (stereo not drawn) [baclofen, reference compound]
effect of compound alone on KCNQ2/3 current [1]: insensitive
Slope ([1]; 100 µM Baclofen, Ctrl 9.3 ± 0.3): 9.2 ± 0.5 mV
Non-normalized tail current V0.5 ([1]; 100 µM Baclofen, Ctrl -42.6 ± 2.3): -45.4 ± 2.5 mV
Normalized tail current V0.5 ([1]; 100 µM Baclofen, Ctrl -44.2 ± 0.4): -46.4 ± 0.6 mV

NCCc1ccc(O)c(O)c1 [dopamine]
effect of compound alone on KCNQ2/3 current [1]: no effect
Slope ([1]; 100 µM Dopamine, Ctrl 8.4 ± 1.5): 7.2 ± 0.6 mV
Normalized tail current V0.5 ([1]; 100 µM Dopamine, Ctrl -40.8 ± 1.4): -41.9 ± 0.6 mV
Non-normalized tail current V0.5 ([1]; 100 µM Dopamine, Ctrl -41.6 ± 5.3): -41.8 ± 3.6 mV

CCOC(=O)Nc1ccc(NCc2ccc(F)cc2)cc1N [retigabine]
EC50 [3]: 11.6 µM
action on GABA receptors [6]: weak activator

NCC(CS(=O)(=O)O)c1ccc(Cl)cc1 (stereo not drawn) [saclofen, reference compound]
effect on GABA activation of KCNQ2/3 [1]: nor did it diminish GABA activation of KCNQ2/3
effect of compound alone on KCNQ2/3 current [1]: neither altered KCNQ2/3 currents alone
Slope ([1]; 100 µM Saclofen, Ctrl 5.6 ± 1.1): 5.5 ± 0.8 mV
Non-normalized tail current V0.5 ([1]; 100 µM Saclofen, Ctrl -41.1 ± 6.7): -42.8 ± 6.6 mV
Normalized tail current V0.5 ([1]; 100 µM Saclofen, Ctrl -42.3 ± 0.8): -42.6 ± 0.8 mV

CCCCC(=O)O [valeric acid, reference compound]
Slope ([1]; 500 µM Valeric acid, Ctrl 9.1 ± 0.5): 8.5 ± 0.6 mV
Normalized tail current V0.5 ([1]; 500 µM Valeric acid, Ctrl -44.2 ± 0.6): -45.1 ± 0.6 mV
Non-normalized tail current V0.5 ([1]; 500 µM Valeric acid, Ctrl -44.5 ± 5.4): -45.6 ± 4.9 mV
Slope ([1]; 500 mM Valeric acid, Ctrl 9.1 ± 0.5): 8.5 ± 0.6 mV
Normalized tail current V0.5 ([1]; 500 mM Valeric acid, Ctrl -44.2 ± 0.6): -45.1 ± 0.6 mV
Non-normalized tail current V0.5 ([1]; 500 mM Valeric acid, Ctrl -44.5 ± 5.4): -45.9 ± 4.9 mV
activity on KCNQ2/3 ([1]; up to 5 mM): inactive; also recorded: no effects

Pertussis toxin
Non-normalized tail current V0.5 [1, 9]: -41.9 ± 6.3 mV
Normalized tail current V0.5 [1, 9]: -40.9 ± 1.4 mV
Slope [1, 9]: 8.8 ± 1.4 mV

picrotoxin
Slope ([4]; 100 µM picrotoxin + 10 µM CGP55845, Ctrl (extracellular solution only) 20.3 ± 4.5): 17.4 ± 3.0 mV
Normalized tail current V0.5 ([4]; 100 µM picrotoxin + 10 µM CGP55845, Ctrl (extracellular solution only) -9.2 ± 4.9): -7.1 ± 7.6 mV
